Literature values as cited in US12447129B2, “Solid dosage form production” (University of Lancashire, priority 2014, dated 2025).

Key:
[1] = plasticiser alone; input to the calculation
[2] = at 25° C.

| SMILES | Tg (K) plasticiser [1] [K] | water sol. [2] [mg/L] |
| --- | --- | --- |
| CC(=O)OCC(COC(C)=O)OC(C)=O [Triacitin] | 193.7 | – |
| CCOC(=O)CC(O)(CC(=O)OCC)C(=O)OCC [TEC] | 203.55 | – |
| Cn1c(=O)c2[nH]cnc2n(C)c1=O [theophylline] | – | 7360 |
